In ChEMBL document CHEMBL3865849, “Development of N-(4-Phenoxyphenyl)benzenesulfonamide Derivatives as Novel Nonsteroidal Progesterone Receptor Antagonists” (ACS Med Chem Lett, 2016):
The source made the active and inactive calls. The rule behind the calls is not given here.

Tests used:
[1] = biological target: T1, Progesterone receptor (Homo sapiens, UniProt P06401); assay: Antagonist activity at progesterone receptor in human T47D cells incubated for 24 hrs in presence of P4 by alkaline phosphatase assay; format: cell-based
T1 sequence (P06401 whole entry): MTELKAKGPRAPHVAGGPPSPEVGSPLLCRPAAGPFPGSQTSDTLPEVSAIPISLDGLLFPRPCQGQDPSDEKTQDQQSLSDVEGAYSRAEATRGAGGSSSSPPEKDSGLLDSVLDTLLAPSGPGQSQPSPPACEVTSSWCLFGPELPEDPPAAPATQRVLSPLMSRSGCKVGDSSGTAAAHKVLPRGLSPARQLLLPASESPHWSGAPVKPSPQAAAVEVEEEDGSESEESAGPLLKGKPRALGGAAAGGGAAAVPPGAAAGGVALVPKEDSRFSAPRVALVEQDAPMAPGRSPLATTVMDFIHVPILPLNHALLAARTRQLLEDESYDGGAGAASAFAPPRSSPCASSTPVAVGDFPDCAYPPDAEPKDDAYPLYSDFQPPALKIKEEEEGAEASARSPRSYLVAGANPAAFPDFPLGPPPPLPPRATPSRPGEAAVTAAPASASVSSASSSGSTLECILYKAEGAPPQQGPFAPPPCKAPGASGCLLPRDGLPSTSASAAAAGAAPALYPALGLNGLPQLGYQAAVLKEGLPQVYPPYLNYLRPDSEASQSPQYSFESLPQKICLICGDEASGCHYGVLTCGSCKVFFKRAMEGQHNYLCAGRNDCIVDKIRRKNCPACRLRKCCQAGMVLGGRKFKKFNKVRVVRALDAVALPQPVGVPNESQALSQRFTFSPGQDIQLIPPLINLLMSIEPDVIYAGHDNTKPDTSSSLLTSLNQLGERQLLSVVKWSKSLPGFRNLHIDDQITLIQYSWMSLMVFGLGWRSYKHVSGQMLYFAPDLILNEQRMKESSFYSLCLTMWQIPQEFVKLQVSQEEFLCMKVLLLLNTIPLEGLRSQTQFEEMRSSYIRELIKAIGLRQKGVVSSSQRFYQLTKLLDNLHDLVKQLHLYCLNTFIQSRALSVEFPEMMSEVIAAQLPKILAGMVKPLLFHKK

[2] = biological target: T1, Progesterone receptor; assay: Displacement of [1,2,6,7-3H]-PG from recombinant human GST-tagged PR-LBD (657 to 933 residues) expressed in baculovirus infected insect cells measured after 24 hrs by liquid scintillation counting method
[3] = biological target: Estrogen receptor beta (Homo sapiens, UniProt Q92731); assay: Antagonist activity at human Gal4-tagged estrogen receptor-beta LBD expressed in HEK293 cells measured after 24 hrs by luciferase reporter gene assay; format: cell-based
Sequence of Estrogen receptor beta (Q92731 whole entry, the tested form may be a part): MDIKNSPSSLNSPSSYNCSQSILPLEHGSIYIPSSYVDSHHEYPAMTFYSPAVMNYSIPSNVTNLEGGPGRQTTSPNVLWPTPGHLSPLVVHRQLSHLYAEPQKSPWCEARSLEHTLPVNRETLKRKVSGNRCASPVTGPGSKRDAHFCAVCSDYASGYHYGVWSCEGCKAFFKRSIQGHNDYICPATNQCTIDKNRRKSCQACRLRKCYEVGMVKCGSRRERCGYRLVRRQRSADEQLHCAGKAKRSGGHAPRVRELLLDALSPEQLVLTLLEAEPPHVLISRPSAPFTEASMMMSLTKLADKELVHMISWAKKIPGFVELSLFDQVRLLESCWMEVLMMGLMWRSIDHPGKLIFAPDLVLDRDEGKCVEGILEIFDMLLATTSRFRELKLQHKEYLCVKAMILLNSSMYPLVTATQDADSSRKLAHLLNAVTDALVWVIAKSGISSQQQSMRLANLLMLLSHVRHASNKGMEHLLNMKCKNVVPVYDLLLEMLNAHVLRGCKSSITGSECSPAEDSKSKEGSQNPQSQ

[4] = biological target: T2, Estrogen receptor (Homo sapiens, UniProt P03372); assay: Antagonist activity at human Gal4-tagged estrogen receptor-alpha LBD expressed in HEK293 cells measured after 24 hrs by luciferase reporter gene assay; format: cell-based
T2 sequence (P03372 whole entry): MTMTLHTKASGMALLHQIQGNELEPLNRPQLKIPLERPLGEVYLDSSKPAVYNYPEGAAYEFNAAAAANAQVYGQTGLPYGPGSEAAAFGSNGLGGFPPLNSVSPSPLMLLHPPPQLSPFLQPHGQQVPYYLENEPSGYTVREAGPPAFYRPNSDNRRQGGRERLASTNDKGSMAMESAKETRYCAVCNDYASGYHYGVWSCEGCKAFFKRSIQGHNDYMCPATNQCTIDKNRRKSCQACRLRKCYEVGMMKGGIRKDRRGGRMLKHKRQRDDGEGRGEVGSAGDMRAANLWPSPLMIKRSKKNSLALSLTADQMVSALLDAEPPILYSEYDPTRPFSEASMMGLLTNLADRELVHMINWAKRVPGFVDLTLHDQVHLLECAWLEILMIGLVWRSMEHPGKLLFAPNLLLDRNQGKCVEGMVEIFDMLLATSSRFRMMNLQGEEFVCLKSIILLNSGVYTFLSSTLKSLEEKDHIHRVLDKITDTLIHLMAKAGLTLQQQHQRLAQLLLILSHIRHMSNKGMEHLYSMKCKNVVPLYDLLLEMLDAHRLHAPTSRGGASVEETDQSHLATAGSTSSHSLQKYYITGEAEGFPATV

[5] = biological target: T3, Progesterone receptor (Homo sapiens) (UniProt P06401); assay: Antagonist activity at progesterone receptor in human T47D cells assessed as suppression of P4-induced Na/K-ATPase-beta1 expression level at 1 and 10 uM measured after 16 hrs by Western blot analysis; format: cell-based
T3 sequence (whole entry): T1 sequence (P06401 whole entry)

[6] = biological target: T4, Glucocorticoid receptor (Homo sapiens, UniProt P04150); assay: Antagonist activity at human glucocorticoid receptor-alpha expressed in HEK293 cells measured after 24 hrs by luciferase reporter gene assay; format: cell-based
T4 sequence (P04150 whole entry): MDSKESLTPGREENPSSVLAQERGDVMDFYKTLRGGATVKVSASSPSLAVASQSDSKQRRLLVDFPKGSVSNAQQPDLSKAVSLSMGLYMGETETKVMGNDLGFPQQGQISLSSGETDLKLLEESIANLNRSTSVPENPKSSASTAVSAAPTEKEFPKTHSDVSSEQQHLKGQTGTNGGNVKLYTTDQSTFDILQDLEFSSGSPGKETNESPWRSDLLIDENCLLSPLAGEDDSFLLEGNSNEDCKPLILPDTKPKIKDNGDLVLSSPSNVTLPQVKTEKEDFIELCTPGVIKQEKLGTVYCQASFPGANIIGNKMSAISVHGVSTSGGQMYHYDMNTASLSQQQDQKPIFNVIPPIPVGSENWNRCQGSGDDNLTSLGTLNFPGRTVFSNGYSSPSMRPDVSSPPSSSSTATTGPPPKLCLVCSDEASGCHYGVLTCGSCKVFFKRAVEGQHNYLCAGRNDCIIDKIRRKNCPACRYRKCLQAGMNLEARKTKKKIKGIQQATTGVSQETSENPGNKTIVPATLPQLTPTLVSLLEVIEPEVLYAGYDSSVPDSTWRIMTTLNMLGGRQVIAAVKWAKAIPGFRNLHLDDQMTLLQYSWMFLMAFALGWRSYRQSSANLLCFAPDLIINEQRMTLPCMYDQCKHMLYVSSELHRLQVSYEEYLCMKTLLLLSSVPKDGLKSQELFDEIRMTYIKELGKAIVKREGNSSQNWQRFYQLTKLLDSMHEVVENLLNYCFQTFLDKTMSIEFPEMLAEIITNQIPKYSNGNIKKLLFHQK

[7] = biological target: T5, Androgen receptor (Homo sapiens, UniProt P10275); assay: Antagonist activity at human AR expressed in HEK293 cells measured after 24 hrs by luciferase reporter gene assay; format: cell-based
T5 sequence (P10275 whole entry): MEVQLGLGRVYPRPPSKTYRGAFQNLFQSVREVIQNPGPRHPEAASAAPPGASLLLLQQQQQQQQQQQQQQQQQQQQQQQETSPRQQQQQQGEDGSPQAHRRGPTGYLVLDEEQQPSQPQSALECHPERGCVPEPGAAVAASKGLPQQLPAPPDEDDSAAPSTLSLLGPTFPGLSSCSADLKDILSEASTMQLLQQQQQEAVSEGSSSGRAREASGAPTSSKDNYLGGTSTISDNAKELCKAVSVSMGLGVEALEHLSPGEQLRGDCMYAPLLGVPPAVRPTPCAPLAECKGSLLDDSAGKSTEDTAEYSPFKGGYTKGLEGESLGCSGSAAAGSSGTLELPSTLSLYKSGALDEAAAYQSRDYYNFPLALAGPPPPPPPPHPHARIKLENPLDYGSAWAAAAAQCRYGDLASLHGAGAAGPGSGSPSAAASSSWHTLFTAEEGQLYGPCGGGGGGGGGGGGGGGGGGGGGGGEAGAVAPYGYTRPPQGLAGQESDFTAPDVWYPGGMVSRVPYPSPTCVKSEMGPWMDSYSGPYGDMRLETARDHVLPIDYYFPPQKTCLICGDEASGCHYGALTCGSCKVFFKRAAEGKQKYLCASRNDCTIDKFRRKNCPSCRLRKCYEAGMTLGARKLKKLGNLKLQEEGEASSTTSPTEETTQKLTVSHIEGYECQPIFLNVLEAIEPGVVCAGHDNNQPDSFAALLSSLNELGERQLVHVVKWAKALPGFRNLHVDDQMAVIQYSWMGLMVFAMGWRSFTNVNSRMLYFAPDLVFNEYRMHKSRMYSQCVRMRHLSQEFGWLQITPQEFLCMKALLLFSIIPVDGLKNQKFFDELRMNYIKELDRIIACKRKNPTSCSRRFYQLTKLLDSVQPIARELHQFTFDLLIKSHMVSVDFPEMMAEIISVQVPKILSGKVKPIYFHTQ

Compound | IC50 [1] | other results
COc1cccc(S(=O)(=O)N(Cc2ccccc2)c2ccc(Oc3ccccc3)cc2)c1 | 2600 nM | 
COc1cccc(S(=O)(=O)Nc2ccc(Oc3ccccc3)cc2)c1 | 250 nM | 
COc1cccc(C(=O)Nc2ccc(Oc3ccc(O)cc3)c(C)c2)c1 | 5000 nM | 
COc1ccc(S(=O)(=O)Nc2ccc(Oc3ccccc3)cc2)cc1 | 500 nM | 
O=S(=O)(c1ccc(Cl)cc1)N(Cc1ccccc1)c1ccc(Oc2ccccc2)cc1 | 3000 nM | 
O=S(=O)(Nc1ccc(Oc2ccccc2)cc1)c1ccccc1Cl | 740 nM | 
COc1ccc(NS(=O)(=O)c2cccc(Cl)c2)cc1 | 820 nM | 
O=S(=O)(Nc1ccc(Oc2ccccc2)cc1)c1cc(Cl)cc(Cl)c1 | 320 nM | 
O=S(=O)(Nc1ccc(Oc2ccccc2)cc1)c1cccc(Br)c1 | 110 nM | IC50 [2]: 47 nM
COc1cccc(Oc2ccc(NC(=O)c3ccccc3)cc2)c1 | 3800 nM | 
COc1cccc(Oc2ccc(NS(=O)(=O)c3cccc(Cl)c3)cc2)c1 | 270 nM | 
O=S(=O)(Nc1ccc(Oc2ccccc2)cc1)c1ccc(Cl)c(Cl)c1 | 410 nM | 
O=S(=O)(Nc1ccc(Oc2ccccc2)cc1)c1cccc(Cl)c1 | 170 nM | IC50 [2]: 62 nM
O=[N+]([O-])c1cccc(S(=O)(=O)Nc2ccc(Oc3ccccc3)cc2)c1 | 140 nM | IC50 [2]: 140 nM
O=S(=O)(Cc1ccccc1)Nc1ccc(Oc2ccccc2)cc1 | 1600 nM | 
O=S(=O)(Nc1ccc(OCc2ccccc2)cc1)c1cccc(Cl)c1 | 810 nM | 
COc1cccc(Oc2ccc(NS(=O)(=O)c3cccc(OC)c3)cc2)c1 | 370 nM | 
Cc1ccc(NS(=O)(=O)c2cccc(Cl)c2)cc1 | 1300 nM | 
O=S(=O)(Nc1ccc(Oc2ccccc2)cc1)c1ccccc1 | 520 nM | 
COc1cccc(S(=O)(=O)N(C)c2ccc(Oc3ccccc3)cc2)c1 | 470 nM | 
O=S(=O)(Nc1ccc(Oc2ccccc2)cc1)c1cc(Cl)c(Cl)cc1Cl | 1600 nM | 
CN(c1ccc(Oc2ccccc2)cc1)S(=O)(=O)c1ccc(Cl)cc1 | 960 nM | 
O=S(=O)(c1cccc(Cl)c1)N(Cc1ccccc1)c1ccc(Oc2ccccc2)cc1 | 2200 nM | 

Compound | IC50 [1] | other results
O=S(=O)(Nc1ccc(Oc2ccccc2)cc1)c1cccc2ccccc12 | 190 nM | 
COc1cccc(S(=O)(=O)Nc2ccc(Oc3ccc(O)cc3)c(C)c2)c1 | 2000 nM | 
O=S(=O)(Nc1ccc(Oc2ccccc2)cc1)c1cccc(F)c1 | 220 nM | IC50 [2]: 310 nM
O=S(=O)(Nc1ccc(-c2ccccc2)cc1)c1cccc(Cl)c1 | 330 nM | IC50 [2]: 110 nM
COc1ccc(S(=O)(=O)N(Cc2ccccc2)c2ccc(Oc3ccccc3)cc2)cc1 | 3500 nM | 
CC(C)c1ccc(NS(=O)(=O)c2cccc(Cl)c2)cc1 | 510 nM | 
O=S(=O)(Nc1ccc(Oc2ccccc2)cc1)c1ccc2ccccc2c1 | 1700 nM | 
O=S(=O)(Nc1ccc(Oc2ccccc2)cc1)c1cccc(C(F)(F)F)c1 | 33 nM | IC50 [3]: 23000 nM; IC50 [2]: 40 nM; IC50 [4]: > 30000 nM; inhibition [5]: Active; IC50 [6]: 12000 nM; IC50 [7]: 5300 nM
CN(c1ccc(Oc2ccccc2)cc1)S(=O)(=O)c1ccccc1Cl | 390 nM | 
CS(=O)(=O)Nc1ccc(Oc2ccccc2)cc1 | 2200 nM | 
O=C(c1ccccc1)c1ccc(NS(=O)(=O)c2cccc(Cl)c2)cc1 | 6000 nM | IC50 [2]: > 10000 nM
O=S(=O)(Nc1ccc(Cc2ccccc2)cc1)c1cccc(Cl)c1 | 450 nM | 
O=C(Nc1ccc(Oc2ccccc2)cc1)c1ccccc1 | 2800 nM | 
N#Cc1cccc(S(=O)(=O)Nc2ccc(Oc3ccccc3)cc2)c1 | 300 nM | 
O=S(=O)(Nc1ccc(Oc2ccccc2)cc1)c1ccc(Cl)cc1 | 670 nM | 
O=S(=O)(Nc1ccc(Oc2ccccc2)cc1)c1cccc(Cl)c1Cl | 640 nM | 
CN(c1ccc(Oc2ccccc2)cc1)S(=O)(=O)c1cccc(Cl)c1 | 650 nM | 
O=S(=O)(Nc1ccc(Br)cc1)c1cccc(Cl)c1 | 1300 nM | 
COc1ccc(S(=O)(=O)N(C)c2ccc(Oc3ccccc3)cc2)cc1 | 990 nM | 
O=S(=O)(c1ccccc1Cl)N(Cc1ccccc1)c1ccc(Oc2ccccc2)cc1 | 2200 nM | 
COc1cccc(Oc2ccc(NS(=O)(=O)c3ccccc3)cc2)c1 | 490 nM | 
O=S(=O)(Nc1ccccc1)c1cccc(Cl)c1 | 1500 nM | 
